Structures are written as SMILES. ≈ marks a conversion by molar mass, not a printed value. Read-outs that look alike come from different tables or passages of the source. Where only a bound is given, the exact number is not on record here.

Common to all, as to test: microbe, parasite or virus in culture
For one assay, the system named is S. aureus 25923. It counts as cell-based, Staphylococcus aureus. The note with it: MHB, 37 °C 24 h, peptides 0.5-128 μM, lowest concentration inhibiting 95% of growth, three independent experiments, read-out: MICs, S. aureus 25923. The procedure: (§1) The peptide antimicrobial activity was determined according to the Clinical and Laboratory Standards Institute method, with modifications. Bacteria concentration was measured by ultraviolet spectrophotometer, and fungi concentration was confirmed by McMillan’s turbidimetric method, which compared the fungi solution with the standard McFarland tube in front of the horizontal line on the paper with the naked eye. Because the light has different refract in different liquids. The standard solution is composed of sulfuric acid and barium chloride, which is equivalent to 1*10^8 CFU fungi. After cultivation, the growth of fungi and bacteria was measured by TECAN automatic enzyme label instrument. Briefly, bacterial cells were cultured in MHB until logarithmic phase, yeast colonies cultured in Yeast Peptone Dextrose Agar (YPDA) were picked and diluted in RPMI 1640 growth medium buffered with morpholine propane sulfonic acid (MOPS), and then 50 μL of bacterial or fungi cell solution (0.5–1 × 10^4 CFU/mL) was added to each well of sterile 96-well plates. Each well contained 50 μL of AMPs dissolved in BSA; the final concentrations of the peptides ranged from 0.5 to 128 μM. The lowest concentration of peptide with no microbial growth being observed were measured after incubation at 37 °C for 24 h for bacteria or at 28 °C for 48 h for fungi. Broth with microbial cells and un-inoculated broth were used as positive control and negative controls, respectively.

Another assay relates to S. aureus 29213. It counts as cell-based, Staphylococcus aureus. The note with it: MHB, 37 °C 24 h, peptides 0.5-128 μM, lowest concentration inhibiting 95% of growth, three independent experiments, read-out: MICs, S. aureus 29213. The procedure: as §1
For a further assay, the system named is L. rhamnosus 1.0385. It counts as cell-based, Lactobacillus rhamnosus. The note with it: 37 °C 24 h, peptides 0.5-128 μM, lowest concentration inhibiting 95% of growth, three independent experiments, read-out: MICs, L. rhamnosus 1.0385. The procedure:
as §1

A further assay relates to L. rhamnosus 1.0911. It counts as cell-based, Lactobacillus rhamnosus. To be noted: 37 °C 24 h, peptides 0.5-128 μM, lowest concentration inhibiting 95% of growth, three independent experiments, read-out: MICs, L. rhamnosus 1.0911. The procedure:
as §1

For assay [1], the system named is C. parapsilosis cgmcc 2.3989. It counts as cell-based. To be noted: RPMI 1640 buffered with MOPS, 28 °C 48 h, 0.5-128 μM, read-out: MICs, C. parapsilosis cgmcc 2.3989. The procedure:
as §1

The subject of assay [2] is C. tropicalis cgmcc 2.1975. It is filed as cell-based. The note with it: RPMI 1640 buffered with MOPS, 28 °C 48 h, 0.5-128 μM, read-out: MICs, C. tropicalis cgmcc 2.1975. The procedure: as §1
The subject of a further assay is L. plantarum 7469. It counts as cell-based. To be noted: 37 °C 24 h, peptides 0.5-128 μM, lowest concentration inhibiting 95% of growth, three independent experiments, read-out: MICs, L. plantarum 7469. The procedure: as §1
A further assay deals with C. albicans SP3902. It is filed as cell-based, Candida albicans. The note with it: clinical isolate, RPMI 1640 buffered with MOPS, 28 °C 48 h, 0.5-128 μM, read-out: MICs, C. albicans SP3902. The procedure:
as §1

In the next assay the test system is C. albicans SP3937. It counts as cell-based, Candida albicans. To be noted: clinical isolate, RPMI 1640 buffered with MOPS, 28 °C 48 h, 0.5-128 μM, read-out: MICs, C. albicans SP3937. The procedure: as §1
The test system of assay [3] is Fluconazole-resistant C. albicans 56214. The note with it: for MIC: Candida albicans, 48 h, read-out: MICs, C. albicans 56214. The procedure:
as §1, with “Bacteria concentration was measured by ultraviolet spectrophotometer, and fungi concentration was confirmed by McMillan’s turbidimetric method, which compared the fungi solution with the standard McFarland tube in front of the horizontal line on the paper with the naked eye.” left out, “The lowest concentration of peptide with no microbial growth being observed were measured after incubation at 37 °C for 24 h for bacteria or at 28 °C for 48 h for fungi.” left out

A further assay has as its system C.albicans cgmcc 2.2086. It counts as cell-based, Candida albicans. The note with it: C.albicans cgmcc 2.2086. The procedure: as §1, with “The lowest concentration of peptide with no microbial growth being observed were measured after incubation at 37 °C for 24 h for bacteria or at 28 °C for 48 h for fungi.” left out
The salt and acid sensitivities of the peptides were measured using with modified method to test MIC values; tested peptides were incubated in the presence of different final concentrations of physiological salts. The subsequent steps were consistent with the MIC determination protocol.

Where [4] appears, read: Lacticaseibacillus rhamnosus, 1.0385.
Setting [5] is: Lacticaseibacillus rhamnosus, 1.0911.
Setting [6] is: Lodderomyces parapsilosis, CGMCC2.
[7] abbreviates: Lactiplantibacillus plantarum, 7469.
The mark [8] stands for this setting: Candida albicans, CGMCC2, no added salt, read-out: MIC, Control.
The mark [9] stands for this setting: Candida albicans, CGMCC2, pH = 6 (acidic conditions), read-out: MIC in acid environment, pH = 6.
The mark [10] stands for this setting: Candida albicans, CGMCC2, physiological concentration of FeCl3, read-out: MIC in the presence of FeCl3.
The mark [11] stands for this setting: Candida albicans, CGMCC2, physiological concentration of KCl, read-out: MIC in the presence of KCl.
Setting [12] is: Candida albicans, CGMCC2, physiological concentration of MgCl2, read-out: MIC in the presence of MgCl2.
Setting [13] is: Candida albicans, CGMCC2, physiological concentration of NH4Cl, read-out: MIC in the presence of NH4Cl.
Where [14] appears, read: Candida albicans, CGMCC2, physiological concentration of NaCl (Na+), read-out: MIC in the presence of NaCl.
The mark [15] stands for this setting: Candida albicans, CGMCC2, physiological concentration of ZnCl2, read-out: MIC in the presence of ZnCl2.

Turning to `CC[C@H](C)[C@H](NC(=O)CN)C(=O)NCC(=O)N[C@@H](C)C(=O)N[C@H](C(=O)N[C@@H](CC(C)C)C(=O)N[C@@H](CCCCN)C(=O)N[C@H](C(=O)N[C@@H](CC(C)C)C(=O)N[C@H](C(=O)N[C@H](C(=O)NCC(=O)N[C@@H](CC(C)C)C(=O)N1CCC[C@H]1C(=O)N[C@@H](C)C(=O)N[C@@H](CC(C)C)C(=O)N[C@H](C(=O)N[C@@H](CO)C(=O)N[C@@H](Cc1c[nH]c2ccccc12)C(=O)N[C@H](C(=O)N[C@@H](CCCCN)C(=O)N[C@@H](CCCNC(=N)N)C(=O)N[C@@H](CCCCN)C(=O)N[C@@H](CCCNC(=N)N)C(=O)N[C@@H](CCC(N)=O)C(=O)N[C@@H](CCC(N)=O)C(N)=O)[C@@H](C)CC)[C@@H](C)CC)[C@@H](C)O)[C@@H](C)O)C(C)C)C(C)C` [Melittin, reference compound], the MIC in the assay with S. aureus 25923 was 2 µM (≈ 5.69 µg/mL); in the assay on S. aureus 29213, 2 µM (≈ 5.69 µg/mL); in the assay on L. rhamnosus 1.0385 it was above 128 µM; with L. rhamnosus 1.0911 it was above 128 µM; in assay [1], 2 µM (≈ 5.69 µg/mL); in assay [2], 2 µM (≈ 5.69 µg/mL). Besides, the MIC in the assay with L. plantarum 7469 is listed as above 128 µM; in the assay with C. albicans SP3902, 4 µM (≈ 11.4 µg/mL); in the assay on C. albicans SP3937, 4 µM (≈ 11.4 µg/mL); in the assay with C.albicans cgmcc 2.2086 (no added salt, read-out: MIC, Control), 4 µM; in the assay with C.albicans cgmcc 2.2086 (pH = 6 (acidic conditions), read-out: MIC in acid environment, pH = 6) it was 4 µM (≈ 11.4 µg/mL); in the assay with C.albicans cgmcc 2.2086 (physiological concentration of FeCl3, read-out: MIC in the presence of FeCl3), 4 µM. In addition, the MIC was determined as 4 µM in the assay with C.albicans cgmcc 2.2086 (physiological concentration of KCl, read-out: MIC in the presence of KCl); 8 µM with C.albicans cgmcc 2.2086 (physiological concentration of MgCl2, read-out: MIC in the presence of MgCl2); 8 µM with C.albicans cgmcc 2.2086 (physiological concentration of NaCl (Na+), read-out: MIC in the presence of NaCl); 4 µM in the assay with C.albicans cgmcc 2.2086 (physiological concentration of ZnCl2, read-out: MIC in the presence of ZnCl2). Moreover, in assay [3] (fluconazole-resistant strain, RPMI 1640 buffered with MOPS, 28 °C 48 h, 0.5-128 μM), the “MICs, C. albicans 56214” value stood at 2 µM.
Consider `OC(Cn1cncn1)(Cn1cncn1)c1ccc(F)cc1F` [Fluconazole, reference compound], for which the MIC was above 128 µM in the assay with S. aureus 25923 (Staphylococcus aureus, 25923); above 128 µM in the assay with S. aureus 29213 (Staphylococcus aureus, 29213); above 128 µM in the assay with L. rhamnosus 1.0385 (setting [4]); above 128 µM with L. rhamnosus 1.0911 (setting [5]); 4 µM (≈ 1.23 µg/mL) in assay [1] (setting [6]); 4 µM (≈ 1.23 µg/mL) in assay [2] (Candida tropicalis, CGMCC2). In addition, the MIC in the assay with L. plantarum 7469 (setting [7]) was above 128 µM; in the assay with C. albicans SP3902 (Candida albicans, SP3902) it was 16 µM (≈ 4.9 µg/mL); with C. albicans SP3937 (Candida albicans, SP3937), 16 µM (≈ 4.9 µg/mL); in [3], above 128 µM; in the assay with C.albicans cgmcc 2.2086 (setting [8]), 1 µM; in the assay with C.albicans cgmcc 2.2086 (setting [9]) it was 1 µM (≈ 0.306 µg/mL). The MIC turned out to be 1 µM in the assay on C.albicans cgmcc 2.2086 (setting [10]); 1 µM with C.albicans cgmcc 2.2086 (setting [11]); 1 µM with C.albicans cgmcc 2.2086 (setting [12]); 1 µM in the assay on C.albicans cgmcc 2.2086 (setting [13]); 2 µM with C.albicans cgmcc 2.2086 (setting [14]); 1 µM in the assay on C.albicans cgmcc 2.2086 (setting [15]).
In the case of `C[C@@H]1[C@H](O)[C@@H](C)/C=C/C=C/C=C/C=C/C=C/C=C/C=C/[C@H](O[C@@H]2O[C@H](C)[C@@H](O)[C@H](N)[C@@H]2O)C[C@@H]2O[C@](O)(C[C@@H](O)C[C@@H](O)[C@H](O)CC[C@@H](O)C[C@@H](O)CC(=O)O[C@H]1C)C[C@H](O)[C@H]2C(=O)O` [Amphotericin B, reference compound], the MIC with S. aureus 25923 (Staphylococcus aureus, 25923) was above 128 µM; with S. aureus 29213 (Staphylococcus aureus, 29213), above 128 µM; with L. rhamnosus 1.0385 (setting [4]), above 128 µM; with L. rhamnosus 1.0911 (setting [5]), above 128 µM; in [1] (setting [6]), 2 µM (≈ 1.85 µg/mL); in assay [2] (Candida tropicalis, CGMCC2) it was 1 µM (≈ 0.924 µg/mL). Moreover, the MIC is above 128 µM in the assay on L. plantarum 7469 (setting [7]); 0.5 µM (≈ 0.462 µg/mL) in the assay with C. albicans SP3902 (Candida albicans, SP3902); 0.5 µM (≈ 0.462 µg/mL) with C. albicans SP3937 (Candida albicans, SP3937); 1 µM (≈ 0.924 µg/mL) in assay [3]; 1 µM with C.albicans cgmcc 2.2086 (setting [8]); 1 µM (≈ 0.924 µg/mL) with C.albicans cgmcc 2.2086 (setting [9]). Further, the MIC with C.albicans cgmcc 2.2086 (setting [10]) was 1 µM; with C.albicans cgmcc 2.2086 (setting [11]), 1 µM; in the assay with C.albicans cgmcc 2.2086 (setting [12]), 1 µM; in the assay on C.albicans cgmcc 2.2086 (setting [13]) it was 1 µM; in the assay with C.albicans cgmcc 2.2086 (setting [14]), 2 µM; with C.albicans cgmcc 2.2086 (setting [15]) it was 1 µM.

The record behind these values is publication PMC8348200, “Selective Antifungal Activity and Fungal Biofilm Inhibition of Tryptophan Center Symmetrical Short Peptide” (International Journal of Molecular Sciences, 2021).
